Test results taken from patent US20050080113A1, “Medicinal compositions” (priority 2001, published 2005).

Q: For `O=C(Nc1nc(-c2ccc(F)cc2)c(-c2ccnc(NC3CCCCC3)c2)s1)c1cccnc1` [H 42-5, N-[5 (2 cyclohexylamino-4-pyridyl)-4 (4 fluorophenyl)-1,3 thiazol-2 yl]nicotinamide], which melting point is on record?
A: The melting point was 136 to 138 °C.

Q: With `Cc1cccc(-c2nc(-c3ccc(F)cc3)sc2-c2ccnc(NCCc3ccccc3)c2)c1` [D 19-12, N-[4 [2 (4 fluorophenyl)-4 (3 methylphenyl)-1,3 thiazol-5 yl]-2 pyridyl]-N-(2-phenylethyl)amine] as the molecule, how does the melting point read?
A: Its melting point is 97 to 98 °C.

Q: For `COc1ccc(-c2nc(N)sc2-c2ccnc(N)c2)cc1` [H 1, [5 (2 amino-4 pyridyl)-4 (4 methoxyphenyl)-1,3 thiazol-2-yl]amine], which melting point is on record?
A: Its melting point is 251 to 254 °C.

Q: Which melting point does the source give for `CCc1nc(-c2cccc(C)c2)c(-c2ccnc(NC(=O)c3cccc(F)c3)c2)s1` [L 39-4, N-[4 [2 ethyl-4 (3-methylphenyl)-1,3 thiazol-5 yl]-2 pyridyl]-3 fluorobenzamide] here?
A: The melting point was 101 to 102 °C.

Q: With `CNc1nc(-c2cccc(C)c2)c(-c2ccnc(NC3CCCC3)c2)s1` [H 36-3, N-methyl-[5 (2-cyclopentylamino-4 pyridyl)-4 (3 methylphenyl)-1,3 thiazol-2-yl]amine] as the molecule, how does the melting point read?
A: Its melting point is 170 to 172 °C.

Q: With `CCCc1nc(-c2cccc(C)c2)c(-c2ccnc(N)c2)s1` [H 18-4, 4 [4 (3 methylphenyl)-2-propyl-1,3 thiazol-5 yl]-2 pyridylamine] as the molecule, how does the melting point read?
A: Its melting point is 113 to 115 °C.

Q: Which melting point does the source give for `Cc1cccc(-c2nc(NC(=O)c3ccc(Cl)nc3)sc2-c2ccnc(NC3CCCCC3)c2)c1` [H 44-1, 6 chloro-N-[5 (2-cyclohexylamino-4 pyridyl)-4 (3 methylphenyl)-1,3 thiazol-2-yl]nicotinamide] here?
A: Its melting point is 255 to 256 °C.

Q: With `CCc1nc(-c2cccc(Cl)c2)c(-c2ccnc(NC3CCCC3)c2)s1` [H 36-11, 4-[4-(3-chlorophenyl)-2-ethyl-1,3-thiazol-5-yl]-N-cyclopentyl-2-pyridylamine] as the molecule, how does the melting point read?
A: The melting point was 110 to 111 °C.

Q: Which melting point does the source give for `CC(=O)Nc1cc(-c2sc(C(C)O)nc2-c2cccc(Cl)c2)ccn1` (centres unmarked) [H 111-2, N-[4 [4 (3 chlorophenyl)-2-(1 hydroxyethyl)-1,3 thiazol-5 yl]-2 pyridyl]acetamide] here?
A: Its melting point is 142 to 145 °C.

Q: Which melting point does the source give for `CCCCC(=O)Nc1cc(-c2sc(CC)nc2-c2cccc(C)c2)ccn1` [H 87-1, N-[4 [2 ethyl-4 (3-methylphenyl)-1,3 thiazol-5 yl]-2 pyridyl]valeramide] here?
A: Its melting point is 81 to 82 °C.

Q: For `CCNC(=O)Nc1cc(-c2sc(CC)nc2-c2cccc(Cl)c2)ccn1` [H 109, N-[4 [4 (3 chlorophenyl)-2-ethyl-1,3 thiazol-5 yl]-2 pyridyl]-N′-ethyl-urea], which melting point is on record?
A: Its melting point is 177 to 180 °C.

Q: Which melting point does the source give for `Cc1cccc(-c2nc(N(C)C(=O)c3ccc(C)nc3)sc2-c2ccnc(NC3CCCC3)c2)c1` [L 67-2, N-[5 (2 cyclopentylamino-4-pyridyl)-4 (3 methylphenyl)-1,3 thiazol-2 yl]-N, 6-dimethylnicotinamide] here?
A: The melting point was 176 to 177 °C.

Q: For `Cc1cc(-c2sc(-c3ccc(S(C)(=O)=O)cc3)nc2-c2ccc(F)cc2)ccn1` [H 58-5, 4 (4 fluorophenyl)-5 (2-methyl-4 pyridyl)-2 (4 methylsulfonylphenyl)-1,3 thiazole], which melting point is on record?
A: The melting point was 190 to 192 °C.

Q: For `CC(=O)Nc1nc(-c2ccc(C(C)(C)C)cc2)c(-c2ccncc2)s1` [23-137, N-[4 [4 (1,1 dimethylethyl)phenyl]-5 (4 pyridyl)-1,3 thiazol-2 yl]acetamide], which melting point is on record?
A: Its melting point is 280 to 281 °C.

Q: With `Cc1cccc(-c2nc(-c3ccc(S(C)(=O)=O)cc3)sc2-c2ccnc(N(C)CCc3ccccc3)c2)c1` [D 25-4, N-methyl-N-[4 [4 (3-methylphenyl)-2 (4 methylsulfonylphenyl)-1,3 thiazol-5 yl]-2 pyridyl]-N-(2 phenylethyl)amine] as the molecule, how does the melting point read?
A: Its melting point is 116 to 117 °C.

Q: For `CCc1nc(-c2cccc(F)c2)c(-c2ccnc(N)c2)s1` [H 20-6, 4 [2 ethyl-4 (3-fluorophenyl)-1,3 thiazol-5 yl]-2 pyridylamine], which melting point is on record?
A: The melting point was 153 to 154 °C.

Q: For `Nc1nc(-c2ccc(F)cc2)c(-c2ccnc(F)c2)s1` [H 7-3, [4 (4 fluorophenyl)-5 (2-fluoro-4 pyridyl)-1,3 thiazol-2 yl]amine], which melting point is on record?
A: Its melting point is 243 to 245 °C.

Q: With `Cc1cccc(-c2nc(N3CCN(C)CC3)sc2-c2ccnc(C)c2)c1` [H 14-13, 4 (3 methylphenyl)-2 (4-methylpiperazin-1 yl)-5 (2 methyl-4 pyridyl)-1,3 thiazole] as the molecule, how does the melting point read?
A: The melting point was 115 to 116 °C.

Q: Which melting point does the source give for `CCc1nc(-c2cccc(C)c2)c(-c2ccnc(CC#N)c2)s1` [H 71, 5 (2 cyanomethyl-4 pyridyl)-2 ethyl-4 (3 methylphenyl)-1,3-thiazole] here?
A: The melting point was 68 to 69 °C.

Q: With `COc1ccc(-c2nc(NC(C)=O)sc2-c2ccnc(NC(C)=O)c2)cc1` [H 38, N-[5 (2 acetylamino-4 pyridyl)-4 (4 methoxyphenyl)-1,3-thiazol-2 yl]acetamide] as the molecule, how does the melting point read?
A: Its melting point is 262 to 264 °C.

Q: Which melting point does the source give for `Cc1cccc(-c2nc(N)sc2-c2ccnc(NC3CCCC3)c2)c1` [H 34-3, [5 (2 cyclopentylamino-4-pyridyl)-4 (3 methylphenyl)-1,3 thiazol-2 yl]amine] here?
A: The melting point was 169 to 170 °C.

Q: Which melting point does the source give for `CC(C)(C)C(=O)Nc1cc(-c2sc(-c3ccc(S(C)(=O)=O)cc3)nc2-c2cccc(Cl)c2)ccn1` [H 58-8, N-[4-[4-(3-chlorophenyl)-2-(4-methylsulfonylphenyl)-1,3-thiazol-5-yl]-2-pyridyl]pivalamide] here?
A: The melting point was 122 to 123 °C.

Q: For `Cc1cc(C)cc(-c2nc(NC(=O)c3cccnc3)sc2-c2cc(C)nc(C)c2)c1` [H 42-2, N-[4 (3,5 dimethylphenyl)-5 (2,6 dimethyl-4 pyridyl)-1,3 thiazol-2 yl]nicotinamide], which melting point is on record?
A: The melting point was 267 to 268 °C.

Q: Which melting point does the source give for `Cc1cccc(-c2nc(NC(=O)c3ccc(C)nc3)sc2-c2ccnc(C)c2)c1` [H 45, 6 methyl-N-[4 (3-methylphenyl)-5 (2 methyl-4 pyridyl)-1,3 thiazol-2-yl]nicotinamide] here?
A: Its melting point is 233 to 234 °C.

Q: For `CC(=O)Nc1cc(-c2sc(C3CCN(C(C)=O)CC3)nc2-c2cccc(Cl)c2)ccn1` [H 93, N-[4 [2 (1 acetylpiperidin-4 yl)-4 (3 chlorophenyl)-1,3-thiazol-5 yl]-2 pyridyl]acetamide], which melting point is on record?
A: The melting point was 160 to 161 °C.

Q: Which melting point does the source give for `Cc1cccc(-c2nc(NC(=O)c3cccnc3)sc2-c2ccnc(NC3CCCCC3)c2)c1` [H 42-3, N-[5 (2 cyclohexylamino-4-pyridyl)-4 (3 methylphenyl)-1,3 thiazol-2 yl]nicotinamide] here?
A: Its melting point is 201 to 203 °C.

Q: Which melting point does the source give for `CC(C)(C)c1ccc(-c2nc(NC(=O)c3ccccc3)sc2-c2ccncc2)cc1` [23-164, N-[4 [4 (1,1 dimethylethyl)phenyl]-5 (4 pyridyl)-1,3 thiazol-2 yl]benzamide] here?
A: The melting point was 292 to 294 °C.

Q: Which melting point does the source give for `COc1ccc(C(=O)Nc2nc(-c3cc(C)cc(C)c3)c(-c3ccnc(C)c3)s2)cn1` [H 48-3, N-[4-(3,5-dimethylphenyl)-5-(2-methyl-4-pyridyl)-1,3-thiazol-2-yl]-6-methoxynicotinamide] here?
A: The melting point was 242 to 244 °C.

Q: Which melting point does the source give for `CCc1nc(-c2ccccc2)c(-c2ccnc(N)c2)s1` [H 20-2, 4 (2 ethyl-4 phenyl-1,3-thiazol-5 yl)-2 pyridylamine] here?
A: Its melting point is 158 to 159 °C.

Q: With `Cc1cccc(-c2nc(-c3ccc(F)cc3)sc2-c2ccnc(NC(=O)CCc3ccccc3)c2)c1` [D 16-12, N-[4-[2-(4-fluorophenyl)-4-(3-methylphenyl)-1,3-thiazol-5-yl]-2-pyridyl]-3-phenylpropionamide] as the molecule, how does the melting point read?
A: The melting point was 169 to 171 °C.

Q: Which melting point does the source give for `CCc1nc(-c2cccc(C)c2)c(-c2ccnc(NC(=O)c3ccc(C)cc3)c2)s1` [L 39-3, N-[4 [2 ethyl-4 (3-methylphenyl)-1,3 thiazol-5 yl]-2 pyridyl]-4 methylbenzamide] here?
A: The melting point was 105 to 106 °C.

Q: Which melting point does the source give for `CC(=O)Nc1cc(-c2sc(C)nc2-c2cccc(Cl)c2)ccn1` [H 30-1, N-[4-[4-(3-chlorophenyl)-2-methyl-1,3-thiazol-5-yl]-2-pyridyl]acetamide] here?
A: The melting point was 112 to 115 °C.

Q: For `CCC(=O)Nc1cc(-c2sc(CC)nc2-c2cccs2)ccn1` [H 30-10, N-[4 [2 ethyl-4 (2-thienyl)-1,3 thiazol-5 yl]-2 pyridyl]propionamide], which melting point is on record?
A: Its melting point is 187 to 188 °C.

Q: For `Cc1cccc(-c2nc(N(C)C(=O)c3cccnc3)sc2-c2ccnc(NC3CCCC3)c2)c1` [H 42-9, N-[5 (2 cyclopentylamino-4 pyridyl)-4 (3 methylphenyl)-1,3 thiazol-2 yl]N-methylnicotinamide], which melting point is on record?
A: The melting point was 148 to 149 °C.

Q: For `CCc1nc(-c2ccc(Cl)cc2)c(-c2ccnc(NC(=O)CC3CCCC3)c2)s1` [H 90-2, N-[4 [4 (4 chlorophenyl)-2-ethyl-1,3 thiazol-5 yl]-2 pyridyl]cyclopentylacetamide], which melting point is on record?
A: Its melting point is 149 to 150 °C.

Q: Which melting point does the source give for `CCC(=O)Nc1cc(-c2sc(CC)nc2-c2cccc(F)c2)ccn1` [H 84-5, N-[4 [2 ethyl-4 (3-fluorophenyl)-1,3 thiazol-5 yl]-2 pyridyl]propionamide] here?
A: Its melting point is 121 to 122 °C.

Q: Which melting point does the source give for `CSCCc1nc(-c2cccc(C)c2)c(-c2ccnc(N)c2)s1` [H 99-1, 4 [4 (3 methylphenyl)-2 [2-(methylthio)ethyl]-1,3 thiazol-5 yl]-2 pyridylamine] here?
A: The melting point was 98 to 99 °C.

Q: Which melting point does the source give for `CC(C)(C)c1ccc(-c2nc(NC(=O)C3CCCC3)sc2-c2ccncc2)cc1` [23-168, N-[4 [4 (1,1 dimethylethyl)phenyl]-5 (4 pyridyl)-1,3 thiazol-2 yl]cyclopentanecarboxamide] here?
A: The melting point was 309 to 311 °C.

Q: With `CCc1nc(-c2cccc(Br)c2)c(-c2ccnc(N)c2)s1` [H 75-2, 4 [4 (3 bromophenyl)-2-ethyl-1,3 thiazol-5 yl]-2 pyridylamine] as the molecule, how does the melting point read?
A: Its melting point is 132 to 134 °C.

Q: Which melting point does the source give for `Cc1cccc(-c2nc(-c3ccc(F)cc3)sc2-c2ccnc(NC(=O)c3ccccc3)c2)c1` [D 16-11, N-[4-[2-(4-fluorophenyl)-4-(3-methylphenyl)-1,3-thiazol-5-yl]-2-pyridyl]benzamide] here?
A: The melting point was 126 to 128 °C.

Q: Which melting point does the source give for `Cc1cccc(-c2nc(NC(=O)c3cccnc3)sc2-c2ccnc(C)c2)c1` [H 41, N-[4 (3 methylphenyl)-5 (2-methyl-4 pyridyl)-1,3 thiazol-2 yl]nicotinamide] here?
A: The melting point was 175 to 178 °C.
